The values below come from patent US9725434B2, “Hydroxy-substituted orexin receptor antagonists” (MERCK SHARP & DOHME CORP., priority 2013, dated 2017).

Test [1] has as its target human orexin-2 receptor (hOX2R) (Homo sapiens (Human), UniProt O43614). The test is described as follows: FLIPR Ca2+ Flux Assay, hOX2R. Type of test: cell-based. Particulars: CHO cells expressing hOX2R; agonist 70 pM Ala-6,12 orexin-A. On the procedure:
In a typical experiment the OX1 and OX2 receptor antagonistic activity of the compounds of the present invention was determined in accordance with the following experimental method. For intracellular calcium measurements, Chinese hamster ovary (CHO) cells expressing the rat orexin-1 receptor or the human orexin-2 receptor, are grown in Iscove's modified DMEM containing 2 mM L-glutamine, […], 1% hypoxanthine-thymidine supplement, 100 U/ml penicillin, 100 μg/ml streptomycin and 10% heat-inactivated fetal calf serum (FCS). The cells are seeded at 20,000 cells/well into Becton-Dickinson black 384-well clear bottom sterile plates coated with poly-D-lysine. All reagents were from GIBCO-Invitrogen Corp. The seeded plates are incubated overnight at 37° C. and 5% CO2. Ala-6,12 human orexin-A as the agonist is prepared as a 1 mM stock solution in 1% bovine serum albumin (BSA) and diluted in assay buffer (HBSS containing 20 mM HEPES, 0.1% BSA and 2.5 mM probenecid, pH7.4) for use in the assay at a final concentration of 70 pM. Test compounds are prepared as 10 mM stock solution in DMSO, then diluted in 384-well plates, first in DMSO, then assay buffer. On the day of the assay, cells are washed 3 times with 100 μl assay buffer and then incubated for 60 min (37° C., 5% CO2) in 60 μl assay buffer containing 1 μM Fluo-4AM ester, 0.02% pluronic acid, and 1% BSA. The dye loading solution is then aspirated and cells are washed 3 times with 100 μl assay buffer. 30 μl of that same buffer is left in each well. Within the Fluorescent Imaging Plate Reader (FLIPR, Molecular Devices), test compounds are added to the plate in a volume of 25 μl, incubated for 5 min and finally 25 μl of agonist is added. Fluorescence is measured for each well at 1 second intervals for 5 minutes and the height of each fluorescence peak is compared to the height of the fluorescence peak induced by 70 pM Ala-6,12 orexin-A with buffer in place of antagonist. […] Alternatively, compound potency can be assessed by a radioligand binding assay (described in Bergman et. al. Bioorg. Med. Chem. Lett. 2008, 18, 1425-1430) in which the inhibition constant (Ki) is determined in membranes prepared from CHO cells expressing either the OX1 or OX2 receptor. The intrinsic orexin receptor antagonist activity of a compound which may be used in the present invention may be determined by these assays.
(§1) Chinese hamster ovary (CHO) cells expressing the human orexin-1 receptor (hOX1R) or the human orexin-2 receptor (hOX2R) were grown in Iscove's modified DMEM containing 2 mM L-glutamine, […], 1% hypoxanthine-thymidine supplement, 100 U/ml penicillin, 100 μg/ml streptomycin and 10% heat-inactivated fetal calf serum (FCS). The cells were seeded at 20,000 cells/well into Becton-Dickinson black 384-well clear bottom sterile plates coated with poly-D-lysine. All reagents were from GIBCO-Invitrogen Corp. The seeded plates were incubated overnight at 37° C. and 5% CO2. Ala-6,12 human orexin-A, used as the agonist, was prepared as a 1 mM stock solution in 1% bovine serum albumin (BSA) and diluted in assay buffer (HBSS containing 20 mM HEPES, 0.1% BSA and 2.5 mM probenecid, pH7.4) for use in the assay at a final concentration of 70 pM. Test compounds were prepared as 10 mM stock solution in DMSO, then diluted in 384-well plates, first in DMSO, then assay buffer.
On the day of the assay, cells were washed 3× with 100 μl assay buffer and then incubated for 60 minutes (37° C., 5% CO2) in 60 μl assay buffer containing 1 μM Fluo-4AM ester, 0.02% pluronic acid, and 1% BSA. The dye loading solution was then aspirated and cells were washed 3× with 100 μl assay buffer.
In general terms: Calcium flux is commonly read through the fluorescence of an indicator in the cells.

Test [2] concerns the target human orexin-1 receptor (hOX1R) (Homo sapiens, UniProt O43613). Nature of the test: FLIPR Ca2+ Flux Assay, hOX1R. Type of test: cell-based. Particulars: CHO cells expressing hOX1R; agonist 70 pM Ala-6,12 orexin-A. On the procedure:
as §1
On the day of the assay, cells were washed 3× with 100 μl assay buffer and then incubated for 60 minutes (37° C., 5% CO2) in 60 μl assay buffer containing 1 μM Fluo-4AM ester, 0.02% pluronic acid, and 1% BSA. The dye loading solution was then aspirated and cells were washed 3× with 100 μl assay buffer. 30 μl of that same buffer was left in each well. Within the Fluorescent Imaging Plate Reader (FLIPR, Molecular Devices), test compounds were added to the plate in a volume of 25 μl, incubated for 5 minutes, and then 25 μl of agonist was added. Fluorescence was measured for each well at 1 second intervals for 5 minutes, and the height of each fluorescence peak was compared to the height of the fluorescence peak induced by 70 pM of Ala-6,12 orexin-A with buffer in place of test compound.

Chain of human orexin-2 receptor (hOX2R) (O43614 whole entry): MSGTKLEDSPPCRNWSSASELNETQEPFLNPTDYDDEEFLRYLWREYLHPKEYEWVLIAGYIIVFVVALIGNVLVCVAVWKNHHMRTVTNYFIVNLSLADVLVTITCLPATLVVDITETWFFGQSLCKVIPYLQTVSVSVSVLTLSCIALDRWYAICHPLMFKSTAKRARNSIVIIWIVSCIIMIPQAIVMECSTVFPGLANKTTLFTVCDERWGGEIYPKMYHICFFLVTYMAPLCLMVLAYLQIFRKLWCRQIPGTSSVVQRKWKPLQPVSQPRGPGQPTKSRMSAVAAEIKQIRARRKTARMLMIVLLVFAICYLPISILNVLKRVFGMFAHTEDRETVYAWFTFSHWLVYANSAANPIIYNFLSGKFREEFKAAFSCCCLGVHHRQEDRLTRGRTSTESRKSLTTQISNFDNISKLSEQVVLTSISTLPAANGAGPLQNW

The IC50 is the concentration that inhibits the measured activity by half. Higher therefore signals weaker potency. In the case of `CC(O)c1cccc(O[C@@H]2CC[C@@H](C)N(C(=O)c3ccccc3-n3nccn3)C2)c1` (stereo partly drawn) [Example 1, 1-(3-{[(3R,6R)-6-Methyl-1-{[2-(2H-1,2,3-triazol-2-yl)phenyl]carbonyl}piperidin-3-yl]oxy}phenyl)ethanol], the IC50 came out at 98 nM in test [1] and 4510 nM in test [2].

Turning to `CC(O)c1cccc(O[C@@H]2CC[C@@H](C)N(C(=O)c3ccccc3-c3ncccn3)C2)c1` (stereo partly drawn) [Example 3, 1-[3-({(3R,6R)-6-Methyl-1-[(2-pyrimidin-2-ylphenyl)carbonyl]piperidin-3-yl}oxy)phenyl]ethanol], the 50% inhibitory concentration (IC50) in test [1] stood at 119 nM; in test [2], 4240 nM. In the case of `C[C@@H]1CC[C@@H](Oc2cc(C(C)(C)O)ccn2)CN1C(=O)c1ccccc1-n1nccn1` [Example 4, 2-(2-{[(3R,6R)-6-Methyl-1-{[2-(2H-1,2,3-triazol-2-yl)phenyl]carbonyl}piperidin-3-yl]oxy}pyridin-4-yl)propan-2-ol], the IC50 in test [1] worked out at 20 nM; in test [2] it was 996 nM. The like results for `C[C@@H]1CC[C@@H](Oc2cccc(C(C)(O)C(F)(F)F)c2)CN1C(=O)c1ccccc1-n1nccn1` (stereo partly drawn) [Example 5, 1,1,1-Trifluoro-2-(3-{[(3R,6R)-6-methyl-1-{[2-(2H-1,2,3-triazol-2-yl)phenyl]carbonyl}piperidin-3-yl]oxy}phenyl)propan-2-ol] were, in that order, 89 nM and 5540 nM. As to `C[C@@H]1CC[C@@H](Oc2cccc(C(C)(C)O)c2)CN1C(=O)c1ccccc1-n1nccn1` [Example 6, 2-(3-{[(3R,6R)-6-Methyl-1-{[2-(2H-1,2,3-triazol-2-yl)phenyl]carbonyl}piperidin-3-yl]oxy}phenyl)propan-2-ol], the values for the half-inhibitory concentration (IC50) in test [1] and in test [2] were 32 nM and 10000 nM, respectively. The like results for `C[C@@H]1CC[C@@H](Oc2cc(C3(O)CCC3)ccn2)CN1C(=O)c1ccccc1-n1nccn1` [Example 8, 1-(2-{[(3R,6R)-6-methyl-1-{[2-(2H-1,2,3-triazol-2-yl)phenyl]carbonyl}piperidin-3-yl]oxy}pyridin-4-yl)cyclobutanol] were, in that order, 41 nM and 1520 nM. For `CCC(C)(O)c1ccnc(O[C@@H]2CC[C@@H](C)N(C(=O)c3ccccc3-n3nccn3)C2)c1` (stereo partly drawn) [Example 9, 2-(2-{[(3R,6R)-6-Methyl-1-{[2-(2H-1,2,3-triazol-2-yl)phenyl]carbonyl}piperidin-3-yl]oxy}pyridin-4-yl)butan-2-ol] the same measures were 14 nM and 436 nM. Consider `C[C@@H]1CC[C@@H](Oc2cc([C@](C)(O)C3CC3)ccn2)CN1C(=O)c1ccccc1-n1nccn1` [Example 11, (1R)-1-cyclopropyl-1-(2-{[(3R,6R)-6-methyl-1-{[2-(2H-1,2,3-triazol-2-yl)phenyl]carbonyl}piperidin-3-yl]oxy}pyridin-4-yl)ethanol], for which the IC50 in test [1] was found to be 14 nM; in test [2], 297 nM.

Regarding `C[C@@H]1CC[C@@H](Oc2cc([C@@](C)(O)C3CC3)ccn2)CN1C(=O)c1ccccc1-n1nccn1` [Example 12, (1S)-1-cyclopropyl-1-(2-{[(3R,6R)-6-methyl-1-{[2-(2H-1,2,3-triazol-2-yl)phenyl]carbonyl}piperidin-3-yl]oxy}pyridin-4-yl)ethanol], the IC50 in test [1] was determined as 13 nM; in test [2], 241 nM. Regarding `C[C@@H]1CC[C@@H](Oc2cccc(C(C)(O)C3CC3)c2)CN1C(=O)c1ccccc1-n1nccn1` (stereo partly drawn) [Example 15, 1-Cyclopropyl-1-(3-{[(3R,6R)-6-methyl-1-{[2-(2H-1,2,3-triazol-2-yl)phenyl]carbonyl}-piperidin-3-yl]oxy}phenyl)ethanol], the half-inhibitory concentration (IC50) in test [1] was 36 nM; in test [2], 2100 nM. The like results for `C[C@@H]1CC[C@@H](Oc2cccc(C(C)(O)C3CCCC3)c2)CN1C(=O)c1ccccc1-n1nccn1` (stereo partly drawn) [Example 16, 1-Cyclopentyl-1-(3-{[(3R,6R)-6-methyl-1-{[2-(2H-1,2,3-triazol-2-yl)phenyl]carbonyl}-piperidin-3-yl]oxy}phenyl)ethanol] were, in that order, 86 nM and 3420 nM.

Regarding `C[C@@H]1CC[C@@H](Oc2cccc(C(C)(O)C3CCC3)c2)CN1C(=O)c1ccccc1-n1nccn1` (stereo partly drawn) [Example 17, 1-Cyclobutyl-1-(3-{[(3R,6R)-6-methyl-1-{[2-(2H-1,2,3-triazol-2-yl)phenyl]carbonyl}piperidin-3-yl]oxy}phenyl)ethanol], the concentration for half-maximal inhibition (IC50) in test [1] is 82 nM; in test [2], 8690 nM. For `CCC(C)(O)c1cccc(O[C@@H]2CC[C@@H](C)N(C(=O)c3ccccc3-n3nccn3)C2)c1` (stereo partly drawn) [Example 18, 2-(3-{[(3R,6R)-6-Methyl-1-{[2-(2H-1,2,3-triazol-2-yl)phenyl]carbonyl}piperidin-3-yl]oxy}phenyl)butan-2-ol] the same measures were 24 nM and 827 nM. With `C[C@@H]1CC[C@@H](Oc2cc(C(C)(C)O)ccc2F)CN1C(=O)c1ccccc1-n1nccn1` [Example 20, 2-(4-Fluoro-3-{[(3R,6R)-6-methyl-1-{[2-(2H-1,2,3-triazol-2-yl)phenyl]carbonyl}piperidin-3-yl]oxy}phenyl)propan-2-ol], the half-maximal inhibitory concentration (IC50) came to 354 nM in test [1] and 10000 nM in test [2]. For `C[C@@H]1CC[C@@H](Oc2nccc(C(C)(C)O)c2F)CN1C(=O)c1ccccc1-n1nccn1` [Example 21, 2-(3-Fluoro-2-{[(3R,6R)-6-methyl-1-{[2-(2H-1,2,3-triazol-2-yl)phenyl]carbonyl}piperidin-3-yl]oxy}pyridin-4-yl)propan-2-ol], the half-maximal inhibitory concentration (IC50) is 6 nM in test [1] and 259 nM in test [2].

The compound `C[C@@H]1CC[C@@H](Oc2ccc3c(c2)C(O)CC3)CN1C(=O)c1ccccc1-n1nccn1` (stereo partly drawn) [Example 24, 6-{[(3R,6R)-6-Methyl-1-{[2-(2H-1,2,3-triazol-2-yl)phenyl]carbonyl}piperidin-3-yl]oxy}-2,3-dihydro-1H-inden-1-ol] gave a 50% inhibitory concentration (IC50) in test [2] of 2070 nM. For the compound `C[C@@H]1CC[C@@H](Oc2cccc3c2CC[C@H]3O)CN1C(=O)c1ccccc1-n1nccn1` [Example 25, (1R)-4-{[(3R,6R)-6-Methyl-1-{[2-(2H-1,2,3-triazol-2-yl)phenyl]carbonyl}piperidin-3-yl]oxy}-2,3-dihydro-1H-inden-1-ol], the IC50 worked out at 238 nM in test [1] and 7200 nM in test [2].

With `C[C@@H]1CC[C@@H](Oc2cccc3c2CC[C@@H]3O)CN1C(=O)c1ccccc1-n1nccn1` [Example 26, (1S)-4-{[(3R,6R)-6-Methyl-1-{[2-(2H-1,2,3-triazol-2-yl)phenyl]carbonyl}piperidin-3-yl]oxy}-2,3-dihydro-1H-inden-1-ol], the half-maximal inhibitory concentration (IC50) in test [1] is 25 nM; in test [2] it was 1530 nM.

With “(1R)-6-{[(3R,6R)-6-Methyl-1-{[2-(2H-1,2,3-triazol-2-yl)phenyl]carbonyl}piperidin-3-yl]oxy}-2,3-dihydro-1H-inden-1-ol [Example 27]”, the IC50 in test [2] amounted to 1340 nM.

As for “(1S)-6-{[(3R,6R)-6-Methyl-1-{[2-(2H-1,2,3-triazol-2-yl)phenyl]carbonyl}piperidin-3-yl]oxy}-2,3-dihydro-1H-inden-1-ol [Example 28]”, in test [2], the 50% inhibitory concentration (IC50) was 10000 nM.
